Among the data in BindingDB's records for doi:10.1021/jm00390a019 (1987) are IC50 values, retold here.

The term IC50 denotes the concentration at which inhibition is half-maximal. Low values mean greater potency in that assay, high ones weaker potency in that assay.

For the test, the target named is Gastrin/cholecystokinin type B receptor (Cavia porcellus). The test is described as follows: Half-maximal inhibition of binding of [125I]gastrin to guinea pig gastric glands.
`CC(C)CC(N)C(=O)N1CC(CC2N=C(c3ccccc3)c3ccccc3NC2=O)c2ccccc21` (stereo not given) yielded an IC50 of over 100 µM.

Turning to `CN1C(=O)[C@@H](Cc2cn(C)c3ccccc23)N=C(c2ccccc2)c2ccccc21`, the IC50 stood at 67 µM. For the compound `CC(C)C[C@H]1N=C(c2ccccc2)c2cc(Cl)ccc2NC1=O`, the IC50 came to 38 µM. The same measure for `CN1C(=O)[C@@H](Cc2c[nH]c3ccccc23)N=C(c2ccccc2)c2ccccc21`: 21 µM; for `O=C1Nc2ccc(Cl)cc2C(c2ccccc2)=N[C@@H]1COCc1ccccc1`: 13 µM; for `CCN1C(=O)[C@@H](Cc2c[nH]c3ccccc23)N=C(c2ccccc2F)c2ccccc21`: over 100 µM. Then `CC(C)CCN1C(=O)[C@@H](Cc2c[nH]c3ccccc23)N=C(c2ccccc2F)c2ccccc21`, with 23 µM. In turn, `O=C1Nc2ccccc2C1C[C@H]1N=C(c2ccccc2)c2cc(Cl)ccc2NC1=O` (stereo not given in full) yielded a half-maximal inhibitory concentration (IC50) of over 100 µM. Turning to `O=C(O)CCN1C(=O)[C@@H](Cc2c[nH]c3ccccc23)N=C(c2ccccc2F)c2ccccc21`, the half-inhibitory concentration (IC50) was 5.8 µM. Then `O=C(O)CN1C(=O)[C@@H](Cc2c[nH]c3ccccc23)N=C(c2ccccc2F)c2ccccc21` [CCK antagonist synthetic 13], with 5 µM.
